In patent US20050282159A1, “Rpob gene of streptomyces, primer specific to streptomyces, and identification method of streptomyces having rifampin resistance or sensitivity by using the same” (priority 2001, published 2005):

How the values were obtained:
S. pulveraceus KCTC 9766 = assay: rifampin-sensitive test on Bennet solid media; assay type: cell-based; set-up: key: “(+)” indicates a genotype with rifampin-resistance; “(−)” indicates a genotype with rifampin-susceptibility; conditions: AAC genotype, 25 ug/ml rifampin, 72 hr
Method: (§1) The 47 strains were respectively cultured at 28° C. for 72 hr in Bennet liquid media. The culture solution was then inoculated on Bennet solid media (yeast extract 1 g/L, Beef extract 1 g/L, Tryptone 2 g/L, Glycerol 10 g/L, Agar 15 g/L) containing 25 ug/ml rifampin, and after incubation for 72 hr, rifampin-resistance was tested.

S. plicatus KCTC 9040 = assay: rifampin-sensitive test on Bennet solid media; assay type: cell-based; set-up: key: “(+)” indicates a genotype with rifampin-resistance; “(−)” indicates a genotype with rifampin-susceptibility; conditions: AAC genotype, 25 ug/ml rifampin, 72 hr
Method: as §1

[1] = system: S. anthocyanicus KCTC 9755; assay: rifampin genotype by rpoB nucleotide sequence analysis; conditions: AAC genotype
Method: (§2) The primer sets of SEQ ID NOs: 1 and 2 were used to amplify rpoB genes of 60 strains, and nucleotides of the […] products were analyzed with an automatic sequencer. SRPOF1 as a forward primer and SRPOR1 as a backward primer were used.
(§3) FIG. 8 is an electropherogram obtained by amplifying 306-bp rpoB gene fragment with the SRPOF1 and SRPOR1 primer set and automatically sequencing with an SRPOF1 primer.

[2] = system: S. atroolvaceous KCTC 9017; assay: as above
Method: as §2, §3

S. humidus KCCM 40647 = assay: as above
Method: as §2, §3

60 strains = assay: rifampin genotype by rpoB nucleotide sequence analysis (summary); set-up: species or system Streptomyces; conditions: the other 41 strains with TCG or TCC at the 352nd position
Method: as §2

[3] = system: 47 strains of Streptomyces references; assay: rifampin-sensitive test on Bennet solid media (summary); assay type: cell-based; conditions: 25 ug/ml rifampin, 72 hr
Method: A total of 47 strains of Streptomyces references including 24 reference strains having AAC encoding Asp and 23 reference strains having TCG or TCC encoding Ser at the sequenced positions were used, and 306-bI rpoB nucleotide sequences of the […] strains are shown in SEQUENCE LISTING.
as §1

`CO[C@H]1/C=C/O[C@@]2(C)Oc3c(C)c(O)c4c(O)c(c(/C=N/N5CCN(C)CC5)c(O)c4c3C2=O)NC(=O)/C(C)=C\C=C\[C@H](C)[C@H](O)[C@@H](C)[C@@H](O)[C@@H](C)[C@H](OC(C)=O)[C@@H]1C` [rifampin] was tested. Which “genotype (rifampin-resistance or susceptibility)” value (S. pulveraceus KCTC 9766) did it give?
Its value is “+”.

And the “genotype (rifampin-resistance or susceptibility)” value (S. plicatus KCTC 9040)?
Its value is “+”.

What about the “rifampin resistance or sensitivity of the strain” value ([1]; S. anthocyanicus (KCTC 9755), identical to the known sensitivity results) of the same compound?
Its value is “rifampin-resistant strain”.

And the “genotype (rifampin-resistant or -sensitive strain)” value ([1]; S. anthocyanicus KCTC 9755)?
Its value is “+”.

What about the “rifampin resistance or sensitivity of the strain” value ([2]; S. atroolvaceous (KCTC9017), TCG genotype, identical to the known sensitivity results) of the same compound?
Its value is “rifampin-sensitive strains”.

And the “genotype (rifampin-resistant or -sensitive strain)” value ([2]; S. atroolvaceous KCTC 9017, TCG (TCC) genotype)?
The value was “−”.

And the “rifampin resistance or sensitivity of the strain” value (S. humidus KCCM 40647; S. humidus (KCCM 40647), TCG genotype, identical to the known sensitivity results)?
Its value is “rifampin-sensitive strains”.

What about the “genotype (rifampin-resistant or -sensitive strain)” value (S. humidus KCCM 40647; S. humidus KCCM 40647, TCG (TCC) genotype) of the same compound?
Its value is “−”.

What about the “rifampin genotype of the strains” value (60 strains) of the same compound?
The value was “rifampin-sensitive genotypes”.

What about the “rifampin resistance or sensitivity of the strains” value ([3]; all 24 strains having AAC genotypes) of the same compound?
Its value is “rifampin-resistant strains”.

What about the “rifampin resistance or sensitivity of the strains” value ([3]; the 23 strains having TCG or TCC genotypes) of the same compound?
Its value is “rifampin-sensitive strains”.
